According to paper PMC8749556, “Functional Characterization of Melanocortin-3 Receptor in a Hibernating Cavefish Onychostoma macrolepis” (Animals : an Open Access Journal from MDPI, 2021):
“Also recorded” adds a separate entry of the source.

Assays:
Mc3r of channel catfish = conditions: ref [12]; cited from earlier work
Mc3r of spiny dogfish = conditions: ref [3]; cited from earlier work
omMc3r [1] = assay: cAMP signaling, CRE luciferase reporter (pGL4.29) assay; assay type: cell-based, Onychostoma macrolepis; conditions: pGL4.29 (CRE) luciferase reporter
Protocol: (§1) In order to test whether omMc3r can be activated by ligands in vitro, we sub-cloned the coding region of omMc3r into pcDNA3.1 (+) vector (Invitrogen, Carlsbad, CA, USA) for subsequent transfection of cells. The constructed vector was further verified by sequencing before use.
(§2) Human embryonic kidney (HEK293T) cells were cultured in Dulbecco modified Eagle’s medium (DMEM, Invitrogen, Carlsbad, CA, USA) supplemented with 10% fetal bovine serum (FBS, Biological Industries, Kibbutz Beit Haemek, Israel) and placed in a humid environment containing 5% CO2 at 37 °C. Cells were passaged every 2 days.
(§3) This study employed the luciferase reporter system to examine whether the four ligands can activate downstream signals through omMc3r. The luciferase reporter vector pGL4.29 and pGL4.33 of Promega (Madison, WI, USA) contain cAMP respose element (CRE) and serum response element (SRE) in their promoter regions, which can monitor the activation of cAMP and MAPK/ERK signaling pathways, respectively. The brief operating procedure was as follows: the HEK293T cells were passaged to a 6-well plate 24 h before transfection. […] An Infinite F200 microplate reader (Tecan, Männedorf, Switzerland) was used to measure the luciferase activities. […]

omMc3r [2] = assay: MAPK/ERK (ERK1/2) signaling, SRE luciferase reporter (pGL4.33) assay; assay type: cell-based, Onychostoma macrolepis
Protocol: as §1, §2, §3

Human MC3R = conditions: ref [3]; cited from earlier work

For adrenocorticotropin [ACTH], the “ligand affinity of channel catfish Mc3r (in words)” value (Mc3r of channel catfish) is given as “highest affinity” and the “ligand affinity of spiny dogfish Mc3r (in words)” value (Mc3r of spiny dogfish) is given as “highest affinity”.

For “β-melanocyte-stimulating hormone [β-MSH]”, the EC50 (omMc3r [1]; HEK293T cells transiently transfected with omMc3r plasmid, ligand 6 h in serum-free DMEM, fold change vs serum-free DMEM, nonlinear regression, mean ± SEM (n = 3, figure legend: mean (SD) of three independent experiments), read-out: EC50, cAMP Response) was 270 ± 4.95 nM, the “activation of cAMP signaling through omMc3r (in words)” value (omMc3r [1]; HEK293T cells, ligand 6 h) was “can all activate the cAMP and MAPK/ERK signaling pathway; also recorded: can activate cAMP and MAPK/ERK signaling pathways in a dose-dependent manner; also recorded: could potently activate the Gαs-cAMP and MAPK/ERK signaling pathway through omMc3r; also recorded: could activate cAMP and the MAPK/ERK signaling through omMc3r with different degrees of potency” and the EC50 (omMc3r [2]; HEK293T cells co-transfected with omMc3r plasmid and pGL4.33 (SRE) luciferase reporter, ligand 6 h in serum-free DMEM, fold change vs serum-free DMEM, nonlinear regression, mean ± SEM (n = 3, figure legend: mean (SD) of three independent experiments), read-out: EC50, ERK1/2 Response) was 4850 ± 10.7 nM. The “activation of MAPK/ERK signaling through omMc3r (in words)” value (omMc3r [2]; HEK293T cells, pGL4.33 (SRE) luciferase reporter, ligand 6 h) was “can all activate the cAMP and MAPK/ERK signaling pathway; also recorded: can activate cAMP and MAPK/ERK signaling pathways in a dose-dependent manner; also recorded: could potently activate the Gαs-cAMP and MAPK/ERK signaling pathway through omMc3r; also recorded: could activate cAMP and the MAPK/ERK signaling through omMc3r with different degrees of potency”.

For “γ-melanocyte-stimulating hormone [γ-MSH]”, the “ligand preference of human MC3R (in words)” value (Human MC3R) is given as “unique preference”.
